This note sets out measurements from patent US7723376B2, “2-oxo-heterocyclic compounds and pharmaceutical compositions” (Korea Research Institute of Bioscience and Biotechnology, priority 2003, dated 2010).

Bounds are passed on as bounds.

For assay [1], the system named is histone deacetylase (HDAC). The experiment in a line: HDAC Fluorescent Activity Assay/Drug Discovery Kit (Biomol) with nuclear extracts of HeLa cell as HDAC source. It is filed as biochemical. Conditions: compounds 0.01 to 10 μM, 25° C., 20 minutes, fluorescence.
Experimental: Fluorogenic Histone Deacetylase Lysyl Substrate was used as substrate for HDAC and the test is based on the fact that the removal of acetyl group by HDAC activity causes the substrate to occur emmition wavelength in the ranging from 360 nm to 460 nm.
Various concentrations of the compounds of the present invention ranging from 0.01 to 10 μM were reacted with HDAC enzyme at 25° C. for 20 minutes and equal volume of developer was added thereto. The fluorescence signal was detected at the wavelength in the range 350 to 460 nm using by fluorescence spectrometer.
A further assay has as its system PC-3 cells. The experiment in a line: Tumor cell growth inhibition, sulforhodamine B (SRB) staining. The format is cell-based. Conditions: PC-3 human prostatic carcinoma cells, 48 hrs, absorbance 540 nm, adriamycin as positive control. Here is the method: PC-3 cells (ATCC, US), human prostatic carcinoma cell line, were cultured in RMPI 1640 supplemented with 10% fetal bovine serum.
Appropriate concentrations of cells (5×10^4 cells/ml) cultured in RMPI 1640 supplemented with 5% fetal bovine serum were poured into 96-well plate and incubated at 37° C. in 5% CO2 condition. The day after the incubation, PC-3 cells were fixed on Time zero (T0) plate by adding 50 μl/well of 50% trichloroacetic acid and the cell concentration was set to zero point by fixing the cells. In the cells treated with test samples, 50% TCA was added to each wells in 50 ul/well after 48 hrs to fix the cells. The final concentration of adding test compounds were 0.01, 0.03, 0.1, 0.3, 1 μg/ml respectively. Then, each fixed plate was washed, dried and 100 μl/well of 0.4% reaction solution containing sulforhodamine B (SRB) reagent dissolved in 0.1% acetic acid was added thereto to stain the cells. 30 minutes later, the cell was washed with 0.1% acetic acid, dried at room temperature, and 10 mM of TRIS base (pH 10.5) was added thereto to dissolve the staining agent. Finally, the absorbance detected at 540 nm was measured and the value was conversed into percentage comparing with that of control group. IC50 (μg/ml), the concentration of the group required to inhibit the cancer cell growth by 50%, was calculated from the data (AA: IC50's<1, A: IC50's<5, B: IC50's<10 and C: IC50's>10). Also, the inhibiting activity of cell growth was expressed as various symbols in accordance with the potency of examples e.g., AA: closely equivalent (1˜2 times), A: slightly weaker (3˜5 times), B: weaker (5˜10 times), C: very weaker (more than 10 times) than that of adriamycin used as a positive control group.
A general note: The SRB assay estimates cell density from bound dye.

As to `O=C(CCC1=CCN(CCCc2ccccc2)C1=O)NO` [Example 4, N-hydroxy-3-[2-oxo-1-(3-phenyl-propyl)-2,5-dihydro-1H-pyrrol-3-yl]-propionamide], the HDAC inhibition result in assay [1] is “AAA”. In addition, the IC50 in the assay with PC-3 cells is less than 5 µg/mL. For the compound `CC(C)c1ccc(CCCN2CC=C(CCC(=O)NO)C2=O)cc1` [Example 43, N-hydroxy-3-{1-[3-(4-isopropyl-phenyl)-propyl]-2-oxo-2,5-dihydro-1H-pyrrol-3-yl]-propionamide], in the assay on PC-3 cells, the IC50 is less than 5 µg/mL. Compound `O=C(CCC1=CCN(CCCc2ccc(Br)cc2)C1=O)NO` [Example 44, 3-{1-[3-(4-bromo-phenyl)-propyl]-2-oxo-2,5-dihydro-1H-pyrrol-3-yl]-N-hydroxy-propionamide] showed an IC50 with PC-3 cells of less than 10 µg/mL. For the compound `O=C(CCC1=CCN(CCCc2ccc(Cl)cc2)C1=O)NO` [Example 45, 3-{1-[3-(4-chloro-phenyl)-propyl]-2-oxo-2,5-dihydro-1H-pyrrol-3-yl]-N-hydroxy-propionamide], the IC50 in the assay with PC-3 cells was less than 10 µg/mL. As to `COc1ccc(CCCN2CC=C(CCC(=O)NO)C2=O)cc1` [Example 46, N-hydroxy-3-{1-[3-(4-methoxy-phenyl)-propyl]-2-oxo-2,5-dihydro-1H-pyrrol-3-yl]-propionamide], the IC50 in the assay on PC-3 cells is less than 10 µg/mL. On the same count and under the same terms, the figure for `O=C(CCC1=CCN(Cc2ccc3ccccc3c2)C1=O)NO` [Example 49, N-hydroxy-3-(1-naphthalene-2-ylmethyl-2-oxo-2,5-dihydro-1H-pyrrol-3-yl)-propionamide] is less than 5 µg/mL; for `CN1CC=C(CCC(=O)NO)C1=O` [Example 50, N-hydroxy-3-(1-methyl-2-oxo-2,5-dihydro-1H-pyrrol-3-yl)-propionamide] it is less than 1 µg/mL. On the same count and under the same terms, the figure for `C=CCN1CC=C(CCC(=O)NO)C1=O` [Example 51, 3-(1-allyl-2-oxo-2,5-dihydro-1H-pyrrol-3-yl)-N-hydroxy-propionamide] is greater than 10 µg/mL; for `O=C(CCC1=CCN(CCc2ccc3ccccc3c2)C1=O)NO` [Example 53, N-hydroxy-3-[1-(2-naphthalene-2-yl-ethyl)-2-oxo-2,5-dihydro-1H-pyrrol-3-yl]-propionamide] it is less than 1 µg/mL. The same measure, in the same setting: the figure for `O=C(CCC1=CCN(CCc2cccs2)C1=O)NO` [Example 54, N-hydroxy-3-[2-oxo-1-(2-thiophen-2-yl-ethyl)-2,5-dihydro-1H-pyrrol-3-yl]-propionamide] is less than 5 µg/mL; for `O=C(CCC1=CCN(CCCc2ccc(-c3ccccc3)cc2)C1=O)NO` [Example 55, 3-[1-(3-biphenyl-4-yl-propyl)-2-oxo-2,5-dihydro-1H-pyrrol-3-yl]-N-hydroxy-propionamide] it is less than 1 µg/mL. As to `O=C(CCC1=CCN(CCCc2ccc3ccccc3c2)C1=O)NO` [Example 56, N-hydroxy-3-[1-(3-naphthalene-2-yl-propyl)-2-oxo-2,5-dihydro-1H-pyrrol-3-yl]-propionamide], the Cell growth inhibition entry with PC-3 cells is given as “AAA”. The compound `COc1ccc(CN2CCC=C(CCC(=O)NO)C2=O)c(OC)c1` [Example 57, 3-[1-(2,4-dimethoxybenzyl)-2-oxo-1,2,5,6-tetrahydro-pyridin-3-yl]-N-hydroxy-propionamide] showed an IC50 in the assay on PC-3 cells of less than 1 µg/mL.

In the assay on PC-3 cells, `O=C(CCC1=CCCN(Cc2ccccc2)C1=O)NO` [Example 58, N-hydroxy-3-(1-benzyl-2-oxo-1,2,5,6-tetrahydro-pyridin-3-yl)-propionic acid] registered an IC50 of less than 10 µg/mL. As to `O=C(CCC1=CCCN(Cc2ccc([N+](=O)[O-])cc2)C1=O)NO` [Example 59, N-hydroxy-3-[1-(4-nitro-benzyl)-2-oxo-1,2,5,6-tetrahydro-pyridin-3-yl)-propionamide], the IC50 in the assay with PC-3 cells is less than 10 µg/mL. With `O=C(CCC1=CCCN(CCc2ccccc2)C1=O)NO` [Example 60], the IC50 in the assay with PC-3 cells was less than 10 µg/mL.

For `COc1ccc(CN2CCC=C(CCC(=O)O)C2=O)c(OC)c1` [Example 63, 3-[1-(2,4-dimethoxybenzyl)-2-oxo-1,2,5,6-tetrahydro-pyridin-3-yl)-propionic acid], the IC50 with PC-3 cells is greater than 10 µg/mL.

With `O=C(O)CCC1=CCCN(Cc2ccccc2)C1=O` [Example 64, 3-(1-benzyl-2-oxo-1,2,5,6-tetrahydro-pyridin-3-yl)-propionic acid], the IC50 in the assay on PC-3 cells was greater than 10 µg/mL. The same measure, in the same setting: the value for `O=C(O)CCC1=CCCN(Cc2ccc([N+](=O)[O-])cc2)C1=O` [Example 65, 3-[1-(4-nitro-benzyl)-2-oxo-1,2,5,6-tetrahydro-pyridin-3-yl)-propionic acid] was greater than 10 µg/mL. `O=C(CCC1=CCCN(Cc2ccccc2)C1=O)Nc1ccccn1` [Example 69, 3-(1-benzyl-2-oxo-1,2,5,6-tetrahydro-pyridin-3-yl)-N-pyridin-2-yl-propionamide] showed an IC50 with PC-3 cells greater than 10 µg/mL. For `O=C(CCC1=CCCN(CCc2ccccc2)C1=O)NOCc1ccccc1` [Example 73, N-benzyloxy-3-(2-oxo-1-phenethyl-1,2,5,6-tetrahydro-pyridin-3-yl)-propionamide], the IC50 with PC-3 cells was greater than 10 µg/mL. Same read-out and setting: the figure for `CC(=O)Nc1ccc(CN2CCC=C(CCC(=O)NO)C2=O)cc1` [Example 74, 3-[1-(4-acetylamino-benzyl)-2-oxo-1,2,5,6-tetrahydro-pyridin-3-yl)-N-hydroxy-propionamide] is greater than 10 µg/mL; for `O=C(CCC1=CCCN(Cc2ccc(NC(=O)c3ccccc3)cc2)C1=O)NO` [Example 75, N-4-[5-(2-hydroxycarbamoyl-ethyl)-6-oxo-3,6-dihydro-2-pyridin-1-yl-methyl]-phenyl-benzamide] it is less than 10 µg/mL. For the compound `CS(=O)(=O)N(c1ccc(CN2CCC=C(CCC(=O)NO)C2=O)cc1)S(C)(=O)=O` [Example 76, N-hydroxy-3-[1-(4-dimethylsulfonylamino-benzyl)-2-oxo-1,2,5,6-tetrahydro-pyridin-3-yl]-propionamide], the IC50 in the assay with PC-3 cells was greater than 10 µg/mL. As to `Cc1ccc(S(=O)(=O)Nc2ccc(CN3CCC=C(CCC(=O)NO)C3=O)cc2)cc1` [Example 77, N-hydroxy-3-2-oxo-1-[4-(toluene-4-sulfonylamino)-benzyl-1,2,5,6-tetrahydro-pyridin-3-yl]-propionamide], in the assay with PC-3 cells, the IC50 was less than 5 µg/mL. In the assay on PC-3 cells, `O=C(CCC1CCCN(CCc2ccccc2)C1=O)NO` (stereo not drawn) [Example 81, N-hydroxy-3-(2-oxo-1-phenethyl-piperidine-3-yl)-propionamide] had an IC50 greater than 10 µg/mL. As for `COc1ccc(CN2CCC=C(CC(=O)NO)C2=O)c(OC)c1` [Example 82, 2-[1-(2,4-dimethoxy-benzyl)-2-oxo-1,2,5,6-tetrahydro-pyridin-3-yl]-N-hydroxy-acetamide], in the assay with PC-3 cells, the IC50 was greater than 10 µg/mL. `O=C(CC1=CCCN(Cc2ccccc2)C1=O)NO` [Example 83, 2-(1-benzyl-2-oxo-1,2,5,6-tetrahydro-pyridin-3-yl)-N-hydroxy-acetamide] gave an IC50 in the assay on PC-3 cells greater than 10 µg/mL.

In turn, `O=C(CC1=CCCN(CCCCc2ccccc2)C1=O)NO` [Example 86, N-hydroxy-2-[2-oxo-1-(4-phenyl-butyl)-1,2,5,6-tetrahydro-pyridin-3-yl]-N-hydroxy-acetamide] came in with an IC50 in the assay with PC-3 cells greater than 10 µg/mL. For the compound `COc1ccc(CN2CCCC(CC(=O)NO)C2=O)c(OC)c1` (stereo not drawn) [Example 92, 2-[1-(2,4-dimethoxy-benzyl)-2-oxo-piperidine-3-yl]-N-hydroxy-acetamide], in the assay on PC-3 cells, the IC50 is greater than 10 µg/mL. As for `COc1ccc(CN2CCC=C(CCCC(=O)NO)C2=O)cc1` [Example 95, 4-[1-(4-methoxy-benzyl)-2-oxo-1,2,5,6-tetrahydro-pyridin-3-yl]-N-hydroxy-butylamide], the IC50 in the assay on PC-3 cells was greater than 10 µg/mL. In the assay with PC-3 cells, `C=CCN1CCC=C(CCC(=O)NO)C1=O` [Example 101, 3-(1-Allyl-2-oxo-1,2,5,6-tetrahydro-pyridin-3-yl)-N-hydroxy-propionamide] yielded an IC50 greater than 10 µg/mL.

In the assay on PC-3 cells, `CN1CCC=C(CCC(=O)NO)C1=O` [Example 102, N-hydroxy-3-(1-methyl-2-oxo-1,2,5,6-tetrahydro-pyridin-3-yl)-propionamide] had an IC50 greater than 10 µg/mL.

The compound `O=C(CCC1=CCCN(Cc2ccc3ccccc3c2)C1=O)NO` [Example 103, N-hydroxy-3-(1-(naphthalene-2-yl-methyl)-2-oxo-1,2,5,6-tetrahydro-pyridin-3-yl)-propionamide] came in with an IC50 with PC-3 cells of less than 10 µg/mL. Same read-out and setting: the figure for `O=C(CCC1=CCCN(CCc2cccs2)C1=O)NO` [Example 104, N-hydroxy-3-[2-oxo-1-(2-thiophen-2-yl-ethyl)-1,2,5,6-tetrahydro-pyridin-3-yl]-propionamide] is less than 10 µg/mL; for `O=C(CCC1=CCCCN(Cc2ccccc2)C1=O)NO` [Example 105, 3-(1-Benzyl-2-oxo-2,5,6,7-tetrahydro-1H-azepin-3-yl)-N-hydroxy-propionamide] it is greater than 10 µg/mL; for `O=C(CCC1=CCCCN(CCCc2ccccc2)C1=O)NO` [Example 106, N-Hydroxy-3-[2-oxo-1-(3-phenyl-ethyl)-2,5,6,7-tetrahydro-1H-azepin-3-yl]-propionamide] it is greater than 10 µg/mL. With `O=C(CCC1=CCCCN(CCCCc2ccccc2)C1=O)NO` [Example 108, N-Hydroxy-3-[2-oxo-1-(4-phenyl-butyl)-2,5,6,7-tetrahydro-1H-azepin-3-yl]-propionamide], the IC50 in the assay with PC-3 cells was greater than 10 µg/mL.

In general, IC50 refers to the point on the concentration scale where inhibition reaches its midpoint. Read a low IC50 as greater potency.
